Assay results from the supplement of paper PMC10307832.

How the values were obtained:
Test in all cases: relative viability (nuclei count vs DMSO), 5 days (fraction); higher = more cells survive
[1] = compound: Cc1ccc2nc(NCCN)c3ncc(C)n3c2c1 + NC(=O)Nc1cc(-c2cccc(F)c2)sc1C(=O)N[C@H]1CCCNC1 [AZD7762] (partner 0.2 µM)
Method in brief: (§1)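 Relative viability equals treated-well nuclei counts divided by vehicle-well nuclei counts. Counts came from 4× images of lung cancer cell lines grown in 1536-well plates for 5 days after pin-tool dosing on the day after seeding. Dosing used one drug alone or a fixed anchor-drug dose plus five library-drug doses (not always all listed) in √10 steps, and values are medians of duplicate plates.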

[2] = compound: Cc1ccc2nc(NCCN)c3ncc(C)n3c2c1 + O=C(c1cc(Cc2n[nH]c(=O)c3ccccc23)ccc1F)N1CCN(C(=O)C2CC2)CC1 [Olaparib] (partner 8 µM)
Method in brief: as §1

Salubrinal + Crizotinib = compound: O=C(/C=C/c1ccccc1)NC(NC(=S)Nc1cccc2cccnc12)C(Cl)(Cl)Cl [Salubrinal] + C[C@@H](Oc1cc(-c2cnn(C3CCNCC3)c2)cnc1N)c1c(Cl)ccc(F)c1Cl [Crizotinib] (partner 1 µM)
Method in brief: as §1

Salubrinal + Foretinib = compound: O=C(/C=C/c1ccccc1)NC(NC(=S)Nc1cccc2cccnc12)C(Cl)(Cl)Cl [Salubrinal] + COc1cc2c(Oc3ccc(NC(=O)C4(C(=O)Nc5ccc(F)cc5)CC4)cc3F)ccnc2cc1OCCCN1CCOCC1 [Foretinib] (partner 0.25 µM)
Method in brief: as §1

Cell Line	relative viability ([1]; first compound 0.04 µM)	relative viability ([1]; first compound 0.1265 µM)	relative viability ([1]; first compound 0.4 µM)	relative viability ([1]; first compound 1.265 µM)	relative viability ([1]; first compound 4 µM)	relative viability ([2]; first compound 0.04 µM)	relative viability ([2]; first compound 0.1265 µM)	relative viability ([2]; first compound 0.4 µM)	relative viability ([2]; first compound 1.265 µM)	relative viability ([2]; first compound 4 µM)	relative viability (Salubrinal + Crizotinib; first compound 0.08 µM)	relative viability (Salubrinal + Crizotinib; first compound 0.253 µM)	relative viability (Salubrinal + Crizotinib; first compound 0.8 µM)	relative viability (Salubrinal + Crizotinib; first compound 2.53 µM)	relative viability (Salubrinal + Crizotinib; first compound 8 µM)	relative viability (Salubrinal + Foretinib; first compound 0.08 µM)	relative viability (Salubrinal + Foretinib; first compound 0.253 µM)	relative viability (Salubrinal + Foretinib; first compound 0.8 µM)	relative viability (Salubrinal + Foretinib; first compound 2.53 µM)	relative viability (Salubrinal + Foretinib; first compound 8 µM)
HCC-44	0.988	1.05	0.933	0.992	1.02	0.999	0.96	0.955	1	0.977	0.833	0.801	0.863	0.748	0.759	–	–	–	–	–
HCC-78	0.828	0.72	0.616	0.752	0.586	0.746	0.861	0.655	0.587	0.766	0.363	0.325	0.398	0.308	0.302	0.597	0.561	0.584	0.649	0.551
HCC-366	0.272	0.278	0.318	0.228	0.239	0.388	0.394	0.36	0.352	0.366	0.798	0.437	0.777	0.393	0.55	0.929	0.947	0.96	0.943	0.915
IA-LM	–	–	–	–	–	0.73	0.793	0.974	0.795	0.721	0.784	0.602	1.19	0.767	0.575	1.21	0.764	1.17	1.12	0.775
NCI-H520	–	–	–	–	–	0.308	0.368	0.323	0.304	0.266	0.816	0.489	0.771	0.663	0.681	0.914	0.798	0.932	0.721	0.912
NCI-H522	0.754	0.778	0.634	0.843	0.765	0.62	0.708	0.585	0.648	0.635	–	–	–	–	–	–	–	–	–	–
NCI-H661	–	–	–	–	–	0.78	0.815	0.701	0.661	0.631	0.934	–	1.1	1.01	1.17	0.996	1.06	1.05	0.991	1.02
NCI-H1299	–	–	–	–	–	0.973	0.965	0.985	0.891	0.767	0.993	0.802	0.943	0.99	0.925	1.12	1.07	1.14	1.05	1.05
NCI-H1395	0.409	0.435	0.43	0.422	0.398	0.47	0.467	0.491	0.429	0.437	–	–	–	–	–	0.993	1.1	0.938	0.92	1.08
NCI-H1563	–	–	–	–	–	–	–	–	–	–	0.853	0.859	0.878	0.851	0.962	0.952	0.919	0.903	0.929	0.866
NCI-H1623	–	–	–	–	–	–	–	–	–	–	–	–	–	–	–	0.735	0.787	0.891	0.824	0.888
NCI-H1648	0.687	0.682	0.587	0.709	0.737	1.08	0.846	0.789	0.843	0.666	–	–	–	–	–	–	–	–	–	–
NCI-H1650	–	–	–	–	–	0.647	0.804	0.715	0.821	0.549	1.06	0.859	1.02	0.882	0.942	1.26	1.02	1.08	1.14	0.894
NCI-H1792	0.822	0.665	–	0.768	0.674	0.499	0.279	–	0.458	0.295	1.14	–	1.33	0.929	0.859	–	–	–	–	–
NCI-H1793	0.506	0.411	0.361	0.39	0.417	1.06	0.812	0.836	0.651	0.795	–	–	–	–	–	0.879	0.645	0.754	0.595	0.508
NCI-H2009	–	–	–	–	–	0.666	0.661	0.666	0.71	0.549	1.02	0.972	0.955	0.983	0.976	1.28	1.2	1.27	1.22	1.24
NCI-H2023	–	–	–	–	–	0.503	0.56	0.541	0.458	0.254	0.674	0.672	0.68	0.635	0.614	1.03	0.882	0.777	0.844	0.818
NCI-H2228	–	–	–	–	–	0.721	0.692	0.614	0.65	0.633	0.496	0.446	0.632	0.353	0.362	0.976	0.875	0.953	0.844	0.868
NCI-H2342	0.548	0.655	0.479	0.452	0.479	0.593	0.439	0.453	0.411	0.503	–	–	–	–	–	1.1	1.04	1.1	1.09	0.927
SK-LU-1	–	–	–	–	–	0.515	0.422	0.513	0.455	0.484	1.23	0.717	1.1	0.938	0.841	0.947	0.898	0.97	0.817	0.775
SK-MES-1	–	–	–	–	–	0.716	0.736	0.745	0.669	0.468	1.05	1	1	1.02	0.908	1.08	0.85	1.04	1.12	0.713
SW 900	–	0.56	0.438	0.694	0.736	–	0.865	0.884	0.874	0.827	–	–	–	–	–	0.78	–	0.806	0.698	0.659
SW 1573	–	–	–	–	–	0.519	0.404	0.504	0.42	0.177	0.653	0.747	0.866	0.781	0.898	0.875	0.719	0.979	0.954	1.07
